Patent publication EP0675900B1, “ANTIBIOTICS GE 37468 A, B AND C” (Biosearch Italia S.p.A., priority 1992, dated 1994)

Columns and labels:
[1] = system: gram positive bacteria and gram positive as well as gram negative anaerobes; assay: Minimal inhibitory concentrations (MIC) by broth microdilution, in vitro antimicrobial activity; type: cell-based; conditions: summary in words of the in vitro spectrum; the MIC values of Table IV are printed only as an image
[2] = system: Staphylococcus aureus Smith; assay: Experimental septicemia in mice; type: in vivo, CD1 mice; conditions: iv, 168 h, mice infected intraperitoneally with 10^6 CFU/mouse S. aureus Smith, compound given intravenously once immediately after infection, Spearman and Kaerber method from survival at day 7
Experimental: The antimicrobial activity of antibiotic GE37468A was also confirmed in experimental septicemia in mice.
Groups of five CD1 mice of both sexes (Charles River, average weight 18-22 g) were infected intraperitoneally with 10^6 CFU/mouse of Staphylococcus aureus Smith suspended in 0.5 ml of 5% bacteriological mucin (Difco). The test compound was administered intravenously once, immediately after infection, in a sterile solution containing 10% dimethylsulfoxide, 10% Cremophor EL®, 20% 0.07 M phosphate buffer (pH 8), 60% glucose solution (5%).

[3] = Hydrolytic degradation in acidic aqueous buffer; type: physicochemical; conditions: kept for 6 to 18 hours in an aqueous buffer solution having a pH value between 3 and 4
Source text: Antibiotics GE37468B and GE37468C seem to derive from antibiotic GE37468A via hydrolytic degradation. […] The physico-chemical characteristics of these two products are as follows: […]

Structure (SMILES) | antimicrobial activity [1] | ED50 [2] [mg/kg] | stability in aqueous buffer solution (hydrolytic degradation) [3]
C=C(NC(=O)C(=C)NC(=O)c1csc(-c2ccc3c(n2)-c2csc(n2)-c2csc(n2)C2C(C)CC(O)N2C(=O)C(Cc2ccc(O)cc2)NC(=O)C2CSC(=N2)C(Cc2ccccc2)NC(=O)c2csc(n2)C(CC(N)=O)NC(=O)c2nc-3oc2C)n1)C(=O)O (centres unmarked) [GE37468A] | mainly active against gram positive bacteria and gram positive as well as gram negative anaerobes | 3.2 | yields substantial amounts of both antibiotic GE37468B and GE37468C
Cc1oc2nc1C(=O)NC(CC(N)=O)c1nc(cs1)C(=O)NC(Cc1ccccc1)C1=NC(CS1)C(=O)NC(Cc1ccc(O)cc1)C(=O)N1C(O)CC(C)C1c1nc(cs1)-c1nc(cs1)-c1nc(-c3nc(C(N)=O)cs3)ccc1-2 (centres unmarked) [GE37468B] | mainly active against gram positive bacteria and gram positive as well as gram negative anaerobes | – | –
C=C(NC(=O)c1csc(-c2ccc3c(n2)-c2csc(n2)-c2csc(n2)C2C(C)CC(O)N2C(=O)C(Cc2ccc(O)cc2)NC(=O)C2CSC(=N2)C(Cc2ccccc2)NC(=O)c2csc(n2)C(CC(N)=O)NC(=O)c2nc-3oc2C)n1)C(N)=O (centres unmarked) [GE37468C] | mainly active against gram positive bacteria and gram positive as well as gram negative anaerobes | – | –
